# Data taken from US9365588B2, “Benzoxazines as modulators of ion channels” (Vertex Pharmaceuticals Incorporated, priority 2011, dated 2016).
# Molecular target: human NaV 1.7 (Homo sapiens, UniProt Q15858)
# Experiment: E-VIPR optical membrane potential assay with electrical stimulation
# Type: cell-based
# Settings: sodium channel inhibition; read-out: Binned Activity Data (IC50)
# Source text: Assays for Detecting and Measuring NaV Inhibition Properties of Compound E-VIPR Optical Membrane Potential Assay Method with Electrical Stimulation
# Sodium channels are voltage-dependent proteins that can be activated by inducing membrane voltage changes by applying electric fields. The electrical stimulation instrument and methods of use are described in Ion Channel Assay Methods PCT/US01/21652, herein incorporated by reference and are referred to as E-VIPR. The instrument comprises a microtiter plate handler, an optical system for exciting the coumarin dye while simultaneously recording the coumarin and oxonol emissions, a waveform generator, a current- or voltage-controlled amplifier, and a device for inserting electrodes in well. Under integrated computer control, this instrument passes user-programmed electrical stimulus protocols to cells within the wells of the microtiter plate.
# 24 hours before the assay on E-VIPR, HEK cells expressing human NaV subtype, like NaV 1.7, are seeded in 384-well poly-lysine coated plates at 15,000-20,000 cells per well. Other subtypes are performed in an analogous mode in a cell line expressing the NaV of interest. HEK cells are grown in media (exact composition is specific to each cell type and NaV subtype) supplemented with 10% FBS (Fetal Bovine Serum, qualified; GibcoBRL #16140-071) and 1% Pen-Strep (Penicillin-Streptomycin; GibcoBRL #15140-122). Cells are grown in vented cap flasks, in 90% humidity and 10% CO2, to 100% confluence. They are usually split by trypsinization 1:10 or 1:20, depending on scheduling needs, and grown for 2-3 days before the next split.
# Bath1 buffer. Glucose 10 mM (1.8 g/L), Magnesium Chloride (Anhydrous), 1 mM (0.095 g/L), Calcium Chloride, 2 mM (0.222 g/L), HEPES 10 mM (2.38 g/L), Potassium Chloride, 4.5 mM (0.335 g/L), Sodium Chloride 160 mM (9.35 g/L).
# Hexyl Dye Solution: Bath1 Buffer+0.5% β-cyclodextrin (make this prior to use, Sigma #C4767), 8 μM CC2-DMPE+2.5 μM DiSBAC6(3). To make the solution Add volume of 10% Pluronic F127 stock equal to volumes of CC2-DMPE+DiSBAC6(3). The order of preparation is first mix Pluronic and CC2-DMPE, then add DiSBAC6(3) while vortexing, then add Bath1+β-Cyclodextrin.
# 1) Pre-spot compounds (in neat DMSO) into compound plates. Vehicle control (neat DMSO), the positive control (20 mM DMSO stock tetracaine, 125 μM final in assay) and test compounds are added to each well at 160× desired final concentration in neat DMSO. Final compound plate volume will be 80 μL (80-fold intermediate dilution from 1 μL DMSO spot; 160-fold final dilution after transfer to cell plate). Final DMSO concentration for all wells in assay is 0.625%.
# 2) Prepare Hexyl Dye Solution.
# 3) Prepare cell plates. On the day of the assay, medium is aspirated and cells are washed three times with 100 μL of Bath1 Solution, maintaining 25 μL residual volume in each well.
# 4) Dispense 25 μL per well of Hexyl Dye Solution into cell plates. Incubate for 20-35 minutes at room temp or ambient conditions.
# 5) Dispense 80 μL per well of Bath1 into compound plates. Acid Yellow-17 (1 mM) is added and Potassium Chloride can be altered from 4.5 to 20 mM depending on the NaV subtype and assay sensitivity.
# 6) Wash cell plates three times with 100 μL per well of Bath1, leaving 25 μL of residual volume. Then transfer 25 uL per well from Compound Plates to Cell Plates. Incubate for 20-35 minutes at room temp/ambient condition
# 7) Read Plate on E-VIPR. Use the current-controlled amplifier to deliver stimulation wave pulses for typically 9 seconds and a scan rate of 400 Hz. A pre-stimulus recording is performed for 0.5 seconds to obtain the un-stimulated intensities baseline. The stimulatory waveform is applied for 9 seconds followed by 0.5 seconds of post-stimulation recording to examine the relaxation to the resting state. […]
# Sequence of human NaV 1.7 (Q15858 whole entry): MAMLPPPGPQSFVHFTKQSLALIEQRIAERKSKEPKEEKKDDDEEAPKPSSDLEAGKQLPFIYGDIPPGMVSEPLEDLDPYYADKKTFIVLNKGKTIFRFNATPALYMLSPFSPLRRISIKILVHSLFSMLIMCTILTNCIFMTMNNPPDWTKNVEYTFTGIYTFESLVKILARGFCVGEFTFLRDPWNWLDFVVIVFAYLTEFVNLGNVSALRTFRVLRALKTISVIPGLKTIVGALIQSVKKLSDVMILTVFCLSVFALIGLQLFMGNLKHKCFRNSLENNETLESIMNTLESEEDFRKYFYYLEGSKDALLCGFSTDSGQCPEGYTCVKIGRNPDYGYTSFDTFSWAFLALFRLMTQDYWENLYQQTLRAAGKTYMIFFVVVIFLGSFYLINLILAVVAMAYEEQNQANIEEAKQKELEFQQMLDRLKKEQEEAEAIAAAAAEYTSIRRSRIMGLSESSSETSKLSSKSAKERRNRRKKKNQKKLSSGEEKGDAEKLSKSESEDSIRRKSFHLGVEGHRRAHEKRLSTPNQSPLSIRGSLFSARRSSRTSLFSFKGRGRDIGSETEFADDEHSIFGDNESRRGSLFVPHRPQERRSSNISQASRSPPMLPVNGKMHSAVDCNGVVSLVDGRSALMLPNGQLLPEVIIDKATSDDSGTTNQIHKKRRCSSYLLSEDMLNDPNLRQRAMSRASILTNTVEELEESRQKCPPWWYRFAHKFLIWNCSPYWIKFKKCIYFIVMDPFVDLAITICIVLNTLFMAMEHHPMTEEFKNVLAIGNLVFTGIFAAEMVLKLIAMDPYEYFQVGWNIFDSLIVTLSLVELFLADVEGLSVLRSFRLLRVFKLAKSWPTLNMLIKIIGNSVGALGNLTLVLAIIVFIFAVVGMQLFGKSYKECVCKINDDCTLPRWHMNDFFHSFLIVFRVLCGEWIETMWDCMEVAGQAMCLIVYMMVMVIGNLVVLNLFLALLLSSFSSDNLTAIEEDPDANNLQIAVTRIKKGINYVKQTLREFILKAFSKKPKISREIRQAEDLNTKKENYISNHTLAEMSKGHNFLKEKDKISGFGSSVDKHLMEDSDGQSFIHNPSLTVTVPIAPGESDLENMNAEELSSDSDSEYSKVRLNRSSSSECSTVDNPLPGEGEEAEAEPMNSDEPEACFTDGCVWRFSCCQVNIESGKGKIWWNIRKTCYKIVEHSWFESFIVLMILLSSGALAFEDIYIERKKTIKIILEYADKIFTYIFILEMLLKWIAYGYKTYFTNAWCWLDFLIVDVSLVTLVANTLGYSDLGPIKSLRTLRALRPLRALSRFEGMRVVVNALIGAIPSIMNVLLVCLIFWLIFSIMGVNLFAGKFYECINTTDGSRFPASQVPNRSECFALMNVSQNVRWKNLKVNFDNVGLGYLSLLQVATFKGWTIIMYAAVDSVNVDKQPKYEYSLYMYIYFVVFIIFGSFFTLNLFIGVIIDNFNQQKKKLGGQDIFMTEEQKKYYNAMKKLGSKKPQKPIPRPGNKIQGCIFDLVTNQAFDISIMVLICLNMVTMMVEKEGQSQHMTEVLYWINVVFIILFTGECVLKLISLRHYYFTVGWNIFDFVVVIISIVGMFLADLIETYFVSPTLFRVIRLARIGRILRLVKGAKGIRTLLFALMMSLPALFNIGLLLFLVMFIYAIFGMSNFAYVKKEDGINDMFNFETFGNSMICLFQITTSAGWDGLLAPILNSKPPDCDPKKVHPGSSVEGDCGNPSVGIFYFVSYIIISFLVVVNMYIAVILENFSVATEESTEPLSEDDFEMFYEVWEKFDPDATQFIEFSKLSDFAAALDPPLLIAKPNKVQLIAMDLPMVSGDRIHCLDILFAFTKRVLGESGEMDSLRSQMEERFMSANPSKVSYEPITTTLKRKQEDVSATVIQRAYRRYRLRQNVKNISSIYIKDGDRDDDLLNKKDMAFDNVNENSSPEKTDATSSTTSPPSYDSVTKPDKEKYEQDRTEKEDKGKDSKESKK
row,Compound,IC50 [nM]
1,CC(C)Oc1ccc(C(=O)N2CCC3(CC2)Oc2ccccc2-n2c3ccc2S(C)(=O)=O)c(F)c1 [Compound 70],≤ 2000
2,Cc1cc(C(=O)N2CCC3(CC2)Oc2ccccc2-n2c(C#N)ccc23)ccc1O [Compound 76],≤ 2000
3,CC(C)(C)S(=O)(=O)c1ccc(C(=O)N2CCC3(CC2)Oc2ccccc2-c2nn(C(F)(F)F)cc23)cc1 [Compound 78],≤ 2000
4,COc1ccc(Cl)cc1C(=O)N1CCC2(CC1)Oc1ccccc1-c1c2cnn1C [Compound 80],> 5000
5,COCCn1ncc2c1-c1ccccc1OC21CCN(C(=O)c2ccc(C(C)(C)C)c(OC)c2)CC1 [Compound 82],≤ 2000
6,Cc1cc(OC(F)(F)F)ccc1C(=O)N1CCC2(CC1)Oc1ccccc1-c1c2cnn1C [Compound 84],2000 to 5000
7,Cn1ncc2c1-c1ccccc1OC21CCN(C(=O)c2ccc(=O)n(C)c2)CC1 [Compound 87],> 5000
8,Cc1nc2c(C(=O)N3CCC4(CC3)Oc3ccccc3-c3c4cnn3C)cccc2[nH]1 [Compound 92],2000 to 5000
9,COc1cc(S(C)(=O)=O)ccc1C(=O)N1CCC2(CC1)Oc1ccccc1-c1c2cnn1C [Compound 93],2000 to 5000
10,COc1cc(OC(C)(C)C)ccc1C(=O)N1CCC2(CC1)Oc1ccccc1-c1c2cnn1C [Compound 94],≤ 2000
11,CCOc1cc(C(=O)N2CCC3(CC2)Oc2ccccc2-c2nn(C)cc23)ccc1OC [Compound 98],≤ 2000
12,Cn1ncc2c1-c1ccccc1OC21CCN(C(=O)c2cccn3ccnc23)CC1 [Compound 99],≤ 2000
13,COC(=O)c1c(OC)cccc1C(=O)N1CCC2(CC1)Oc1ccccc1-n1c(C#N)ccc12 [Compound 101],≤ 2000
14,Cn1ncc2c1-c1ccccc1OC21CCN(C(=O)c2ccccc2O)CC1 [Compound 102],> 5000
15,CC(C)(CO)c1ccc(C(=O)N2CCC3(CC2)Oc2cc(Cl)ccc2-n2cccc23)cc1F [Compound 103],≤ 2000
16,Cn1ncc2c1-c1ccccc1OC21CCN(C(=O)c2ccc(N3CCCCC3)nc2)CC1 [Compound 104],> 5000
17,CC(C)(CO)c1ccc(C(=O)N2CCC3(CC2)Oc2cc(Cl)ccc2-n2cccc23)cc1 [Compound 106],≤ 2000
18,Cn1ncc2c1-c1ccc(Cl)cc1OC21CCN(C(=O)c2cccc(F)c2OC(F)F)CC1 [Compound 108],≤ 2000
19,COc1c(C)cccc1C(=O)N1CCC2(CC1)Oc1ccccc1-c1c2cnn1C [Compound 109],≤ 2000
20,Cn1cc2c(n1)-c1ccccc1OC21CCN(C(=O)c2cccc3cccnc23)CC1 [Compound 113],≤ 2000

row,Compound,IC50 [nM]
1,COc1ccc(F)cc1C(=O)N1CCC2(CC1)Oc1ccccc1-n1c(C#N)ccc12 [Compound 115],≤ 2000
2,COc1cc(OC(F)(F)F)ccc1C(=O)N1CCC2(CC1)Oc1cc(Cl)ccc1-n1cccc12 [Compound 116],≤ 2000
3,CC(C)Oc1ccc(C(=O)N2CCC3(CC2)Oc2ccc(F)cc2-c2nn(C)cc23)cc1 [Compound 117],≤ 2000
4,CC(C)S(=O)(=O)c1ccc(C(=O)N2CCC3(CC2)Oc2ccccc2-n2ccnc23)cc1 [Compound 119],2000 to 5000
5,COc1cc(OC(F)(F)F)ccc1C(=O)N1CCC2(CC1)Oc1ccccc1-c1c2cnn1C [Compound 121],≤ 2000
6,Cc1cc(C(=O)N2CCC3(CC2)Oc2ccccc2-n2c(C(F)(F)F)ccc23)ccc1S(C)(=O)=O [Compound 123],≤ 2000
7,N#Cc1ccc2n1-c1ccccc1OC21CCN(C(=O)c2cccc(F)c2OC(F)F)CC1 [Compound 125],≤ 2000
8,COc1cc(F)c(F)cc1C(=O)N1CCC2(CC1)Oc1ccccc1-c1c2cnn1C [Compound 127],> 5000
9,CCCOc1ccc(C(=O)N2CCC3(CC2)Oc2ccccc2-c2c3cnn2C)cc1 [Compound 128],≤ 2000
10,COc1ccc(C(=O)N2CCC3(CC2)Oc2cc(Cl)ccc2-n2cccc23)c(C(F)(F)F)c1 [Compound 129],≤ 2000
11,CCOc1ncccc1C(=O)N1CCC2(CC1)Oc1ccccc1-n1c(C(F)(F)F)ccc12 [Compound 130],≤ 2000
12,CC(C)Oc1ccc(C(=O)N2CCC3(CC2)Oc2ccccc2-c2c3cnn2C)cc1Cl [Compound 135],≤ 2000
13,Cn1ncc2c1-c1ccccc1OC21CCN(C(=O)c2cccnc2Oc2ccccc2)CC1 [Compound 138],≤ 2000
14,Cc1cc(C(=O)N2CCC3(CC2)Oc2ccccc2-c2c3cnn2C)ccc1S(C)(=O)=O [Compound 141],≤ 2000
15,COc1ccc(C(=O)N2CCC3(CC2)Oc2ccccc2-c2c3cnn2C)cc1C(F)(F)F [Compound 143],2000 to 5000
16,COc1cc(C(=O)N2CCC3(CC2)Oc2ccccc2-c2c3cnn2C)ccc1OC[C@H](C)OC [Compound 146],≤ 2000
17,Cn1cccc(C(=O)N2CCC3(CC2)Oc2cc(Cl)ccc2-n2cccc23)c1=O [Compound 147],≤ 2000
18,CC(C)NC(=O)c1ccc(C(=O)N2CCC3(CC2)Oc2ccccc2-c2c3cnn2C)cc1 [Compound 150],> 5000
19,CCn1ncc2c1-c1ccccc1OC21CCN(C(=O)c2cccc(F)c2OC)CC1 [Compound 154],≤ 2000

# More lines, now with the values ahead:
row,IC50 [nM],Compound
1,≤ 2000,Cc1cc(C(=O)N2CCC3(CC2)Oc2cc(F)ccc2-n2cccc23)ccc1OCC1CCCO1 (stereo not shown) [Compound 74]
2,≤ 2000,COc1ccccc1C(=O)N1CCC2(CC1)Oc1cc(Cl)ccc1-n1cccc12 [Compound 81]
3,≤ 2000,COCCCOc1ccc(C(=O)N2CCC3(CC2)Oc2ccccc2-n2cccc23)cc1OC [Compound 83]
4,≤ 2000,COc1cc(C(=O)N2CCC3(CC2)Oc2cc(Cl)ccc2-n2cccc23)ccc1OC[C@H](O)CO [Compound 90]
5,≤ 2000,COC[C@H](C)Oc1ccc(C(=O)N2CCC3(CC2)Oc2ccccc2-n2cccc23)cc1C(F)(F)F [Compound 95]
6,≤ 2000,COc1cc(C(=O)N2CCC3(CC2)Oc2ccccc2-n2cccc23)ccc1OCCO [Compound 97]
7,≤ 2000,Cc1ccc(C(=O)N2CCC3(CC2)Oc2cc(Cl)ccc2-n2cccc23)cc1C [Compound 105]
8,≤ 2000,COc1ccc(C(=O)N2CCC3(CC2)Oc2cc(Cl)ccc2-n2cccc23)c(C)c1 [Compound 111]
9,≤ 2000,COc1cc(C(=O)N2CCC3(CC2)Oc2ccccc2-n2cccc23)ccc1O[C@@H]1CCOC1 [Compound 112]
10,≤ 2000,COc1cc(C(=O)N2CCC3(CC2)Oc2ccccc2-n2c(C(C)=O)ccc23)ccc1OC(C)C [Compound 114]
11,≤ 2000,CC[C@H](C)Oc1ccc(C(=O)N2CCC3(CC2)Oc2ccccc2-n2cccc23)cc1C(F)(F)F [Compound 126]
12,≤ 2000,CC[C@@H](C)Oc1ccc(C(=O)N2CCC3(CC2)Oc2ccccc2-n2cccc23)cc1C(F)(F)F [Compound 131]
13,> 5000,CCc1ccc(C(=O)N2CCC3(CC2)Oc2cc(CN)ccc2-n2cccc23)cc1OC [Compound 137]
14,≤ 2000,COCCOc1ccc(C(=O)N2CCC3(CC2)Oc2cc(Cl)ccc2-n2cccc23)cc1OC [Compound 139]
15,≤ 2000,COc1cc(C(=O)N2CCC3(CC2)Oc2ccccc2-n2cccc23)ccc1OC[C@@H](O)CO [Compound 140]
16,≤ 2000,CC[C@H](C)Oc1ccc(C(=O)N2CCC3(CC2)Oc2cc(F)ccc2-n2cccc23)cc1OC [Compound 142]
17,≤ 2000,CC[C@@H](C)Oc1ccc(C(=O)N2CCC3(CC2)Oc2ccccc2-n2cccc23)cc1C#N [Compound 145]
18,≤ 2000,O=C(c1ccc(S(=O)(=O)[C@H]2CCOC2)cc1)N1CCC2(CC1)Oc1ccccc1-n1c(C(F)(F)F)ccc12 [Compound 151]
19,≤ 2000,Cc1cc(C(=O)N2CCC3(CC2)Oc2ccccc2-n2ccnc23)ccc1OC(C)C [Compound 153]
